Measurements taken from the NIST ThermoML archive (doi:10.1016/j.tca.2012.05.004).

Experiment: xn = mol fraction of the nth substance listed
Conditions: 101.3 kPa, Liquid, Vibrating tube method

CCCCC(C)O (centres undefined) [2-hexanol] + ClCCCl
mass density [kg/m3]
Conditions	288.15 K	293.15 K	298.15 K	303.15 K	308.15 K	313.15 K
x1 = 0.0502	1223.08	1216.04	1208.98	1201.9	1194.78	1187.63
x1 = 0.0999	1188.97	1182.13	1175.27	1168.37	1161.45	1154.5
x1 = 0.1504	1157.18	1150.56	1143.9	1137.21	1130.49	1123.74
x1 = 0.2001	1126.22	1120.72	1114.91	1108.44	1101.9	1095.33
x1 = 0.2498	1099.98	1093.76	1087.5	1081.2	1074.85	1068.47
x1 = 0.2995	1073.96	1068.01	1061.96	1055.85	1049.7	1043.51
x1 = 0.3499	1048.88	1043.06	1037.18	1031.25	1025.28	1019.26
x1 = 0.3999	1025.35	1019.69	1013.99	1008.24	1002.45	996.615
x1 = 0.45	1003.14	997.678	992.164	986.594	980.978	975.219
x1 = 0.4994	982.243	976.929	971.582	966.175	960.716	955.218
x1 = 0.5501	961.948	956.802	951.619	946.386	941.113	935.792
x1 = 0.5999	942.875	937.885	932.861	927.787	922.674	917.511
x1 = 0.6498	924.759	919.925	915.048	910.129	905.161	900.15
x1 = 0.6995	907.657	903.05	898.319	893.543	888.715	883.843
x1 = 0.7499	891.009	886.457	881.863	877.224	872.535	867.8
x1 = 0.8004	874.928	870.513	866.056	861.55	856.996	852.392
x1 = 0.8499	859.958	855.674	851.345	846.966	842.537	838.058
x1 = 0.8998	845.485	841.327	837.125	832.874	828.565	824.204
x1 = 0.9482	831.995	827.968	823.889	819.755	815.567	811.322
